Like-named read-outs stand apart in the source and are kept apart here.
Tests used:
breast cancer cell lines = conditions: background statement; read-out: IC50, growth of breast cancer cell lines; cited from earlier work
MCF-7 tumors [1] = assay: MCF-7 ER+ mammary tumor model; type: in vivo, mice
T47D = assay: Inhibition of mammary carcinoma cell line T47D; type: cell-based; conditions: Table 5, human, ERα+, HER2−
Protocol: 3-(4,5-Dimethylthiazol-2-yl)-2,5-diphenyltetrazolium Bromide (MTT) Cell Proliferation Assay. To cells grown in 96-well-tissue culture plate, 20 μl/well of MTT solution (5 mg/ml in PBS) was added. After 1-2 hours incubation at 37° C., the plate was centrifuged. Supernatant was discarded and 100 μl DMSO was added to dissolve water insoluble formazan, and the absorbance was read at 540 nm with a plate reader.

MCF-7 tumors [2] = conditions: background statement; cited from earlier work
CYP3A4 [3] = target: T1, CYP3A4 (Homo sapiens, UniProt P08684); assay: Midazolam hydroxylation by CYP3A4 in Nanodiscs; type: biochemical
T1 sequence (P08684 whole entry): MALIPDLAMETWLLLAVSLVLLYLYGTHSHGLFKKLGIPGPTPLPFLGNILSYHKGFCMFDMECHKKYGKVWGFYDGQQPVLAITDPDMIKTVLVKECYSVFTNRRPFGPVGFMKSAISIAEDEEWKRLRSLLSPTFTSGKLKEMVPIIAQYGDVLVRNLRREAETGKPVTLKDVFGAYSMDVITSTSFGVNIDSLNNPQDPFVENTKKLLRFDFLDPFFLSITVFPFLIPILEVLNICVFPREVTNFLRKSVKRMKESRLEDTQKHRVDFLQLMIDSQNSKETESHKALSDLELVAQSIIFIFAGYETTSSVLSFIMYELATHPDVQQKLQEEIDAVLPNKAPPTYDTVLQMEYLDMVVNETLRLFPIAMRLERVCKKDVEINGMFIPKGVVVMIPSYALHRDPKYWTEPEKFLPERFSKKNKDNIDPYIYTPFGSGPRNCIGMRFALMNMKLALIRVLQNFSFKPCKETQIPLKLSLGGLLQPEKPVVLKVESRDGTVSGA
Protocol: Titration of ˜6 uM CYP3A4 in POPC Nanodiscs was done using 16 mM stock solution obtained by 6-fold dilution of the original 100 mM DMSO solution in methanol. Aliquots of 0.1-0.2 μL were added to 120 μL solution of CYP3A4-ND in semi-micro cell (10 mm pathlength). Spectra with background corrected for scattering are shown in FIG. 17, and titration data points in FIG. 18.
These concentrations were selected based on IC50 for arachidonic acid metabolism mentioned in the first e-mail (low HCB concentration) and on our titration results. We used seven MDZ concentrations and measured both 1 OH and 4 OH hydroxy-MDZ products using HPLC with absorbance detection at 240 nm. Results are shown below in FIG. 19.

MCF-7 cells = assay: Mitochondrial swelling, JC-1 confocal imaging in MCF-7 cells; type: cell-based, human; conditions: 10 μM, FIG. 5
Protocol: FIG. 5. Mitochondrial swelling by HCB treatment in MCF-7 cells. MCF-7 cells were seeded at 30,000 cells/well into a chambered coverslip and treated with HCB or DMSO for 2 hours. JC-1 potential sensitive dye was added to a final concentration of 20 μM and incubation continued for an additional half an hour. Cell was then washed and imaged with a confocal microscope. Active mitochondria are stained yellow to orange. White arrows indicate swollen mitochondria.

CYP2C8 = target: T2, CYP2C8 (Homo sapiens, UniProt P10632); assay: CYP2C8-mediated arachidonic acid epoxygenase EET biosynthesis; type: biochemical
T2 construct: purchased Corning; host or cells: insect cells (microsomes)
T2 sequence (P10632 1-490): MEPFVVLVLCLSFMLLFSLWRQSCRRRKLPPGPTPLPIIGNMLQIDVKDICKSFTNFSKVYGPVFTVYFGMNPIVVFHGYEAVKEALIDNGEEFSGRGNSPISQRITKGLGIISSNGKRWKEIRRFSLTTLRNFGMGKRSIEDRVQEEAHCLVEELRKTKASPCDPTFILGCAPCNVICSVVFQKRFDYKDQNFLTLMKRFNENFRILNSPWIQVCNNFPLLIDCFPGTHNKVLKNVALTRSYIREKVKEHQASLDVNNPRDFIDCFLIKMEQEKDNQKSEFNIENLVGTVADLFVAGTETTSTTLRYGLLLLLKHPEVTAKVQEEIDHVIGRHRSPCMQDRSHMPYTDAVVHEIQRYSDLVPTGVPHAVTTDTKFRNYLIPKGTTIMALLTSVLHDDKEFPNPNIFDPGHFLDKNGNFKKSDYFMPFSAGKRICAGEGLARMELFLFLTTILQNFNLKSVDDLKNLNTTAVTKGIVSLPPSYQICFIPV
Protocol: Recombinant Microsomal CYP-mediated EET Biosynthesis. CYP Supersomes™ (Corning, NY) (1 μM, final concentration) were incubated at 37° C. for 30 min in the presence of AA (120 μM) in 50 μl potassium phosphate buffer, (50 mM, pH 7.4), containing 1 mM EDTA and 1 mM NADPH. Reactions were terminated by addition of 50 μL of acetonitrile spiked with ^13C-EET internal standards followed by vigorous vortexing. After centrifugation at 16,000×rpm for 10 minutes to precipitate proteins and other insoluble debris and 80 μL supernatant was transferred into HPLC vials and analyzed by with an LC-ESI/MRM/MS method.
LC-ESI/MRM/MS Method for EET Measurement. EETs were measured by an LC-ESI/MRM/MS analytical method on a ThermoFisher Vantage triple quadrupole mass spectrometer (ThermoFisher, San Jose, CA) coupled with an UltiMate 3000 HPLC (ThermoFisher, San Jose, CA), using argon as the collision gas. Negative ion monitoring was performed at the following diagnostic product ions: 319 m/z→155 m/z for 8,9-EET; 319 m/z→179 m/z for 11,12-EET; 319 m/z→219 m/z for 14,15-EET; 339 m/z→163 m/z for 8,9-[^13C-20]EET; 339 m/z→233 m/z for 11,12-[^13C-20]EET; and 339 m/z→259 m/z for 14,15-[^13C-20]EET. Base-line resolution of EET regioisomers was achieved on a Phenomenex Luna C18 (2) reverse phase capillary column (250×0.5 mm, 5-μm particles) using the following mobile phase combinations: isocratic 5% B for 5 min, gradient 5-70% B for 5 min, hold at 70% for 30 min and then 95% for 10 min; A: 0.01% acetic acid in water, B: 0.01% acetic acid in acetonitrile; 10 μl/min flow rate. A standard curve was obtained by linear regression of the peak area ratio of authentic EET regioisomers against internal standards. The amount of EETs in samples was calculated according to the standard curve.

CYP3A4 [4] = target: T1, CYP3A4; assay: Stability with recombinant human CYP3A4; type: in vitro ADME; design: purchased Corning; host or cells: insect cells (microsomes)
Protocol: Stability of HCB with recombinant human CYP3A4 and CYP2C8 enzymes was evaluated. 10 μM HCB was tested wich CYP3A4 and 2C8 (200 pmol/L) (Table 8). NADPH (2 mM) was added as a cofactor. Total volume was 200 μL.
HCB was incubated for 0, 30, or 60 min at 37° C. Incubations were quenched with 2 volumes of acetonitrile followed by centrifugation for 10 min at 16,000 g.

SMILES | IC50 (breast cancer cell lines) [µM] | tumor control (MCF-7 tumors [1]; subcutaneous route at the MTD, compared with other route) | oxidative phosphorylation in ER+/HER2− MCF-7 tumors (MCF-7 tumors [1]; subcutaneous, MTD) | IC50 (T47D) [µM] | growth of the MCF-7 ER+ mammary tumor model (MCF-7 tumors [2]) | inhibition of MDZ hydroxylation (CYP3A4 [3]; 5.9 uM HCB, CYP3A4 Nanodiscs) | effect on the 1 OH/4 OH ratio of MDZ hydroxylation (CYP3A4 [3]; 64 uM HCB) | effect on mitochondrial tubule networks (MCF-7 cells) | IC50 (CYP2C8; (±)8,9-EET, read-out: IC50, CYP2C8 biosynthesis of (±)8,9-EET) [µM] | IC50 (CYP2C8; (±)11,12-EET, read-out: IC50, CYP2C8 biosynthesis of (±)11,12-EET) [µM] | fold lower inhibition of CYP2C8 (vs CYP3A4) (CYP2C8; (±)14,15-EET biosynthesis) [fold] | IC50 (CYP2C8; (±)14,15-EET, read-out: inhibition of CYP2C8-mediated biosynthesis of (±)14,15-EET) [µM] | parent metabolite peak area after 60 min (CYP3A4 [4]; 10 μM HCB, recombinant human CYP3A4, NADPH 2 mM) [%] | degradation pathways (CYP3A4 [4]; recombinant human CYP3A4 and CYP2C8)
CCCCCCNC(=N)NC(=N)NCc1ccccc1 [HBB, N1-hexyl-N5-benzyl-biguanide] | 3 to 30 | equally effective | inhibit oxidative phosphorylation | 22 | inhibits growth | – | – | – | – | – | – | – | – | –
CCCCCCNC(=N)NC(=N)NCC12C3C4C5C3C1C5C42 (centres unmarked) [HCB, Hexyl Cubanomethyl Biguanide] | – | – | – | – | – | Significant inhibition | clear and reproducible effect | caused loss of mitochondrial tubule networks | 31 | 52 | 10 | 42 | 93.91 | oxidation, dealkylation, and hydrogenation
